Measured values as given in patent publication US5858702A, “Isolation, cloning and expression of transmembrane water channel Aquaporin 5 (AQP5)” (The Johns Hopkins University, priority 1995, dated 1999).

Columns and labels:
Red cell water channels = settings: submillimolar concentrations; cited from earlier work
CHIP28 = target: T1, CHIP28 (Homo sapiens, UniProt P29972); assay: Stopped-flow water flux (Pf) in CHIP28 proteoliposomes, effect of mercurial reagents; type: biochemical
T1 construct: was comprised of AQP1 (the 28-kDa protein itself and the 35-60-kDa glycosylated protein); from tissue; host or cells: human erythrocytes (blood-bank units; small-scale purifications from freshly drawn whole blood)
T1 sequence (P29972 2-269 limits assumed): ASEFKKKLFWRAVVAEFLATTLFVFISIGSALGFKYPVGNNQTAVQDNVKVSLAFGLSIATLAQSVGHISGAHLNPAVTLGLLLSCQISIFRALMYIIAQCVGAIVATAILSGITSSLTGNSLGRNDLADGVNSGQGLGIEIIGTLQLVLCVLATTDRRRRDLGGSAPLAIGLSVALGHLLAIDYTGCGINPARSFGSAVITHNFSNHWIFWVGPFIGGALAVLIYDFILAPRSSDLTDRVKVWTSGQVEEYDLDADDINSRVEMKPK
Experimental: Purified AQP1 was stored overnight at 0° C. or frozen for several days at -80° C. prior to reconstitution. Reconstitution into proteoliposomes was carried out in a final volume of 1 ml containing 60-90 μg of purified AQP 1 protein in chromatography buffer, 9 mg of bath-sonicated E. coli phospholipid, 1.25% (w/v) octyl glucoside, and 50 mM Tris-HCl (pH 7.5). The mixture was briefly blended on a vortex mixer and incubated for 20 minutes on ice. Proteoliposomes (or liposomes prepared without protein) were formed at room temperature by rapidly injecting the mixture into 25 ml of buffer A [50 mM MOPS, pH 7.5, 150 mM N-methyl-D-glucamine (NMDG) chloride also containing 10-15 mM carboxyfluorescein, 1 mM dithiothreitol, and 0.5 mM PMSF]. For the measurement of proton permeability, proteoliposomes and liposomes were loaded with buffer B (5 mM MOPS, pH 7.5, 150 mM KCl, 0.5 mM carboxyfluorescein, 1 mM dithiothreitol, and 0.5 mM PMSF). The suspension was incubated for 20 minutes at room temperature. Proteoliposomes or liposomes were collected by centrifugation for 1 hour at 123000×g in a Beckman Type 42.1 rotor at 4° C. The pellet was resuspended in 8 ml of buffer A or B and then centrifuged for 1 hour at 152000×g in a Beckman Type 50 Ti rotor. Proteoliposomes or liposomes were resuspended in 300 μl of buffer A or B and stored at 4° C. for 16-24 hours. Typically 50% (54±6%, n=5) of the AQP1 protein and 70% of the phospholipid were recovered in proteoliposomes. The lipid to protein ratio was in the range of 120:1 to 219:1. These proteoliposomes have internal volumes of 1 μl/mg of phospholipid (Ambudkar and Maloney, 1986, J. Biol. Chem. 261:10079-10086). Protein and phospholipid were measured as described by Ambudkar & Maloney (J. Biol. Chem., 1986, 261:10079-10086).
(§1) Permeability measurements. Membrane permeability measurements (Pf) were measured by exposing AQP1 proteoliposomes or control liposomes to an osmotic gradient by rapid mixing with an equal volume of another solution containing buffer A plus sufficient sucrose to increase osmolality in the mixed solutions to a value 120% of that in the original solution. This was performed with a stopped-flow fluorometer (SF.17MV, Applied Photophysics, Leatherhead, U.K.) with a measured dead time of 0.7 ms. The excitation wavelength was set at 490±1.5 nm using a 150-W mercury-xenon arc lamp and monochromator (.function.3.4 grating monochromator, both from Applied Photophysics); the emission wavelength was >515 nm using a cut-on filter (Oriel Corp., Stratford, Conn.). Extravesicular carboxyfluorescein fluorescence was completely quenched using anti-fluorescein antibody (Harris et al., 1990, Am. J. Physiol. 259:F366-F371).
Within the range of osmolalities used in these experiments, the vesicles acted as perfect osmometers, and relative volume (absolute volume divided by initial volume) was linearly related to relative fluorescence (absolute fluorescence divided by initial fluorescence). The data obtained from 8 to 16 determinations was averaged and fit to single-exponential curves using 5 software provided by Applied Photophysics (Zeidel et al., 1992, Biochemistry 31:589-596). The fitting parameters were then used to determine Pf by first applying the linear conversion from relative fluorescence to relative volume and then iteratively solving the water permeability equation using MathCAD software (MathSoft, Cambridge, Mass.):
dV(t)/dt=(Pf)(SAV)(MVW)[(Cin /V(t))-Cout ] (1)
where V(t) is relative intravesicular volume as a function of time, Pf is osmotic water permeability in centimeters per second, SAV is the vesicle surface area to volume ratio, MVW is the molar volume of water (18 cm^3 /mol), and Cin and Cout are the initial concentrations of total solute inside and outside the vesicle, respectively (Zeidel et al., 1992, Biochemistry 31:589-596).
Effect of mercural reagents.

[1] = Stopped-flow water flux (Pf) in control liposomes, effect of mercurial reagents; type: biochemical; settings: 1 mM mercurial
Experimental: Purified AQP1 was stored overnight at 0° C. or frozen for several days at -80° C. prior to reconstitution. Reconstitution into proteoliposomes was carried out in a final volume of 1 ml containing 60-90 μg of purified AQP 1 protein in chromatography buffer, 9 mg of bath-sonicated E. coli phospholipid, 1.25% (w/v) octyl glucoside, and 50 mM Tris-HCl (pH 7.5). The mixture was briefly blended on a vortex mixer and incubated for 20 minutes on ice. […] Protein and phospholipid were measured as described by Ambudkar & Maloney (J. Biol. Chem., 1986, 261:10079-10086).
as §1, with “The excitation wavelength was set at 490±1.5 nm using a 150-W mercury-xenon arc lamp and monochromator (.function.3.4 grating monochromator, both from Applied Photophysics); the emission wavelength was >515 nm using a cut-on filter (Oriel Corp., Stratford, Conn.).” left out, “259:F366-F371). […]” for “259:F366-F371).”

| reversal of inhibition by both mercurial reagents (CHIP28; β-mercaptoethanol 5 mM after pCMBS or HgCl2) | Structure (SMILES) | inhibition of red cell water channels (Red cell water channels) | time to complete inhibition of Pf (CHIP28; 1 mM, 37° C.) | Pf in CHIP28 proteoliposomes after mercurial (CHIP28; 1 mM, 37° C. (FIG. 12: pCMBS 25 minutes, HgCl2 3 minutes)) | effect on the Pf of control liposomes [1] |
| --- | --- | --- | --- | --- | --- |
| – | [Cl][Hg][Cl] [HgCl2] | can be inhibited by submillimolar concentrations | ≤ 5 min | 0.007±0.003 cm/s | Neither pCMBS nor HgCl2 had any effect |
| completely reversed | OCCS [β-mercaptoethanol] | – | – | – | – |
